This note sets out measurements from PubChem BioAssay AID743317 (Broad Institute, 2014).

Records with an inconclusive call do not appear. Activity calls are given as the source filed them.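 How the source made its calls: active means fitted curve reaches 40% activation at or below the top valid dose, and every replicate test is called active; inconclusive means replicate tests disagree, some active and some inactive; inactive means all replicate tests inactive, including activity in the wrong direction.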

For one assay, the target named is Endoplasmic reticulum aminopeptidase 1 (Homo sapiens) (UniProt Q9NZ08). Briefly: ERAP1 aminopeptidase activity change, dose response, biochemical, fluorescence, cherry-pick (AID 743317). As to conditions: ERAP1 enzyme, Leu-AMC fluorescence, 60 min.
Sequence of Endoplasmic reticulum aminopeptidase 1 (Homo sapiens) (Q9NZ08 whole entry, looked up): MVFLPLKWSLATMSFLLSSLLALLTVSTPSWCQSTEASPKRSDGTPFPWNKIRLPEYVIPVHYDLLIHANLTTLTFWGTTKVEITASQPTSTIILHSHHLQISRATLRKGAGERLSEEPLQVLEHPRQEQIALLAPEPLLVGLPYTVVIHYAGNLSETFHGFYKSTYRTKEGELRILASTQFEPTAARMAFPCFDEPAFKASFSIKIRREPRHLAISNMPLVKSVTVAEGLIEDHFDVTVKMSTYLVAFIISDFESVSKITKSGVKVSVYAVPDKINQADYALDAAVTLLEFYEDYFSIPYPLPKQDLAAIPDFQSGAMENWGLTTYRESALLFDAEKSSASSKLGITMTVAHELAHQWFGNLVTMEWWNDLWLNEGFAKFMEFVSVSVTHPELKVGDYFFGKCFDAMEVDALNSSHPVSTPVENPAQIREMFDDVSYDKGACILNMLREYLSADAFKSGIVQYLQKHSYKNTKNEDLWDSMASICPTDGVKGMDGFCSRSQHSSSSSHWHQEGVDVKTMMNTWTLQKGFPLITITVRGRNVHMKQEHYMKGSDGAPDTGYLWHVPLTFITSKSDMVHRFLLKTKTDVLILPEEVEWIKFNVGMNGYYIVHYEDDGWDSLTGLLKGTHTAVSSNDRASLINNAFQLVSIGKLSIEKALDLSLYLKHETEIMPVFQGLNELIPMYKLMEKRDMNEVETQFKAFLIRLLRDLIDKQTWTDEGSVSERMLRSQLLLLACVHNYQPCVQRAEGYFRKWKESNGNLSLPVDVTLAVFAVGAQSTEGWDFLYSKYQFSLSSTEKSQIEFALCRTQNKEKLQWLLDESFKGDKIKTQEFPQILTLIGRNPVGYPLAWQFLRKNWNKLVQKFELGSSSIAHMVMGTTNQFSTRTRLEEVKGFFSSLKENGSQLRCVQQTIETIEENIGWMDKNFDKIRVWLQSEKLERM
Regarding `C[C@H]1CN([C@@H](C)CO)C(=O)c2cccc(NC(=O)Nc3ccc(F)cc3)c2O[C@@H]1CN(C)C(=O)Nc1ccc2c(c1)OCO2`, the AC40 is 5.56 µM.

As to `Cc1ccc(S(=O)(=O)Nc2ccc3c(c2)C(=O)N([C@@H](C)CO)C[C@H](C)[C@H](CN(C)C)OCCCC[C@@H](C)O3)cc1`, the AC40 is 0.48 µM.

Take `Cc1ccc2nc3c(cc(C(=O)NCc4ccccc4)c(=N)n3CCCn3ccnc3)c(=O)n2c1`: the AC40 was 8.84 µM.

With `Cc1noc(C)c1S(=O)(=O)Nc1ccc2c(c1)C(=O)N([C@H](C)CO)C[C@@H](C)[C@@H](CN(C)CC1CCCCC1)OCCCC[C@@H](C)O2`, the AC40 is 5.46 µM.

As for `COc1ccc(CN(C)C[C@@H]2OCCCC[C@H](C)Oc3ccc(NS(=O)(=O)c4cccs4)cc3C(=O)N([C@@H](C)CO)C[C@@H]2C)cc1`, the AC40 was 1.19 µM.

Take `C[C@H]1CN([C@@H](C)CO)C(=O)c2cccc(NC(=O)Nc3ccc(C(F)(F)F)cc3)c2O[C@@H]1CN(C)CC1CC1`: the AC40 was 0.541 µM.

With `Cc1noc(C)c1NC(=O)N(C)C[C@@H]1Oc2c(NC(=O)Nc3ccccc3)cccc2C(=O)N([C@H](C)CO)C[C@@H]1C`, the AC40 was 6.45 µM.

As to `C[C@@H]1CCCCO[C@@H](CN(C)CC2CC2)[C@@H](C)CN([C@H](C)CO)C(=O)c2cc(NS(=O)(=O)c3cccs3)ccc2O1`, the AC40 was less than 0.08 µM.

For `C[C@@H]1CCCCO[C@@H](CN(C)Cc2ccc(C(=O)O)cc2)[C@H](C)CN([C@@H](C)CO)C(=O)c2cc(NS(=O)(=O)c3ccc(Cl)cc3)ccc2O1`, the AC40 was 3.66 µM.

With `O=C(C[C@@H]1CC[C@@H]2[C@H](COC[C@H](O)CN2C(=O)Nc2cccc(Cl)c2)O1)N1CCCCC1`, the AC40 is 0.364 µM.

With `O=C(Nc1ccc(C(F)(F)F)cc1)N1[C@@H]2CNC[C@H]1C2c1ccc(-c2ccncc2)cc1` (stereo partly drawn), the AC40 was 7.23 µM.

`Cc1ccccc1-c1ccc2c(c1)O[C@@H](CN(C)Cc1ccc(C(=O)O)cc1)[C@@H](C)CN([C@H](C)CO)S2(=O)=O`: the AC40 was 4.29 µM.

Regarding `C[C@@H]1CCCCO[C@@H](CN(C)CC2CCCCC2)[C@H](C)CN([C@@H](C)CO)C(=O)c2cc(NC(=O)Nc3ccccc3)ccc2O1`, the AC40 was 0.357 µM.

Turning to `COc1ccc(CN(C)C[C@H]2OCCCC[C@@H](C)Oc3ccc(NS(=O)(=O)c4cccs4)cc3C(=O)N([C@H](C)CO)C[C@H]2C)cc1`, the AC40 is 1.23 µM.

`C[C@@H]1CCCCO[C@@H](CN(C)C(=O)CCC(F)(F)F)[C@@H](C)CN([C@@H](C)CO)C(=O)c2cc(NS(=O)(=O)c3ccccc3)ccc2O1`: the AC40 was 1.73 µM.

As to `CCCN(C)C[C@@H]1OCCCC[C@@H](C)Oc2ccc(NS(=O)(=O)c3ccc(C)cc3)cc2C(=O)N([C@@H](C)CO)C[C@@H]1C`, the AC40 was 0.133 µM.

In the case of `C[C@@H]1CCCCO[C@@H](CN(C)Cc2ccc3c(c2)OCO3)[C@@H](C)CN([C@@H](C)CO)C(=O)c2cc(NS(=O)(=O)c3ccccc3)ccc2O1`, the AC40 is 0.563 µM.

Consider `C[C@H](CO)N1C[C@H](C)[C@H](CN(C)C)Oc2c(NC(=O)Nc3ccc(C(F)(F)F)cc3)cccc2C1=O`, for which the AC40 was 0.935 µM.

As to `COc1ccc(S(=O)(=O)Nc2ccc3c(c2)C(=O)N([C@@H](C)CO)C[C@H](C)[C@H](CN(C)C)OCCCC[C@@H](C)O3)cc1`, the AC40 is 0.419 µM.

As to `CCCN(C)C[C@@H]1OCCCC[C@@H](C)Oc2ccc(NS(=O)(=O)c3ccccc3)cc2C(=O)N([C@H](C)CO)C[C@@H]1C`, the AC40 is 1.04 µM.

As to `C[C@@H]1CCCCO[C@@H](CN(C)S(C)(=O)=O)[C@@H](C)CN([C@@H](C)CO)C(=O)c2cc(NS(=O)(=O)c3ccc(Cl)cc3)ccc2O1`, the AC40 was 0.266 µM.

In the case of `COc1ccc(C(=O)O)cc1S(=O)(=O)Nc1cc(C(F)(F)F)ccc1N1CCCCC1`, the AC40 was 0.246 µM.

For `CCCN(C)C[C@@H]1OCCCC[C@@H](C)Oc2ccc(NS(=O)(=O)c3ccc(F)cc3)cc2C(=O)N([C@H](C)CO)C[C@@H]1C`, the AC40 was 3.88 µM.

Regarding `Cc1noc(C)c1NC(=O)N(C)C[C@@H]1Oc2c(NC(=O)Nc3ccc(F)cc3)cccc2C(=O)N([C@H](C)CO)C[C@@H]1C`, the AC40 is 5.64 µM.

`O=C(C[C@H]1CC[C@H]2[C@@H](COC[C@@H](O)CN2C(=O)Nc2cccc(Cl)c2)O1)N1CCCCC1`: the AC40 was 0.211 µM.

For `C[C@@H]1CCCCO[C@H](CN(C)Cc2ccccc2)[C@H](C)CN([C@@H](C)CO)C(=O)c2cc(NS(=O)(=O)c3cccs3)ccc2O1`, the AC40 was 0.607 µM.

As for `Cc1c(O)ccc2c(CN3CCN(Cc4ccccc4)CC3)cc(=O)oc12`, the AC40 is 4.1 µM.

In the case of `N#Cc1c(N)n(CCNC(=O)c2ccccc2)c2nc3ccccc3nc12`, the AC40 was 10 µM.

As for `C[C@H](CO)N1C[C@H](C)[C@H](CN(C)Cc2ccncc2)Oc2c(NC(=O)Nc3ccc(C(F)(F)F)cc3)cccc2C1=O`, the AC40 is 0.704 µM.

Take `CCn1cc(CN2CCCC(C(=O)Nc3ccc(-c4nc5ccccc5[nH]4)cc3)C2)c(C)n1` (stereo not drawn): the AC40 is 3.5 µM.

As to `COc1ccc(CN(C)C[C@@H]2OCCCC[C@@H](C)Oc3ccc(NS(=O)(=O)c4cccs4)cc3C(=O)N([C@H](C)CO)C[C@H]2C)cc1`, the AC40 is 1.15 µM.

As for `C[C@H](CO)N1C[C@H](C)[C@@H](CN(C)CC2CC2)Oc2c(NC(=O)Nc3ccc(C(F)(F)F)cc3)cccc2C1=O`, the AC40 was 0.757 µM.

For `C[C@@H]1CCCCO[C@@H](CN(C)Cc2ccc(C(=O)O)cc2)[C@@H](C)CN([C@H](C)CO)C(=O)c2cc(NC(=O)Nc3cccc4ccccc34)ccc2O1`, the AC40 is 0.408 µM.

Take `CCCN(C)C[C@@H]1OCCCC[C@@H](C)Oc2ccc(NS(=O)(=O)c3c(C)noc3C)cc2C(=O)N([C@H](C)CO)C[C@@H]1C`: the AC40 is 1.24 µM.

With `C[C@@H]1CCCCO[C@@H](CN(C)C)[C@H](C)CN([C@@H](C)CO)C(=O)c2cc(NC(=O)Nc3ccc(C(F)(F)F)cc3)ccc2O1`, the AC40 is 0.516 µM.

In the case of `CCCN(C)C[C@@H]1OCCCC[C@@H](C)Oc2ccc(NS(=O)(=O)c3ccc(C)cc3)cc2C(=O)N([C@H](C)CO)C[C@@H]1C`, the AC40 is 1.42 µM.

Take `CCCN(C)C[C@@H]1OCCCC[C@@H](C)Oc2ccc(NS(=O)(=O)c3ccc(OC)cc3)cc2C(=O)N([C@H](C)CO)C[C@@H]1C`: the AC40 is 0.812 µM.

On to `CO[C@@H]1CN(C)C(=O)c2ccc(NC(=O)Nc3cccc(Cl)c3)cc2OC[C@@H](C)NC[C@H]1C`, for which the AC40 was 1.41 µM.

Consider `C[C@H]1CN([C@@H](C)CO)C(=O)c2cccc(NC(=O)Nc3ccc4c(c3)OCO4)c2O[C@@H]1CN(C)CC1CC1`, for which the AC40 is 0.77 µM.

For `C[C@H](CO)N1C[C@H](C)[C@@H](CN(C)C)Oc2c(NC(=O)Nc3ccc(C(F)(F)F)cc3)cccc2C1=O`, the AC40 was 0.762 µM.

With `CC(=O)Oc1cc2oc(=O)cc(C)c2cc1Cl`, the AC40 was 1.02 µM.

For the compound `COc1ccc(CN(C)C[C@@H]2OCCCC[C@@H](C)Oc3ccc(NS(=O)(=O)c4cccs4)cc3C(=O)N([C@H](C)CO)C[C@@H]2C)cc1`, the AC40 was 0.161 µM.

`C[C@@H]1CCCCO[C@@H](CN(C)Cc2ccc3c(c2)OCO3)[C@@H](C)CN([C@H](C)CO)C(=O)c2cc(NS(=O)(=O)c3cccs3)ccc2O1`: the AC40 is less than 0.08 µM.

Staying with this assay, now noted: ERAP1 enzyme, Leu-AMC fluorescence, 60 min; at 5.6 µM (top of the series).
On to `COC(=O)Cc1c(C)c2ccc(O)c(CNCc3ccc(OC)c(OC)c3)c2oc1=O`, for which the activity increase (activation) is -74.1% (inactive).

The same assay, now with this note: ERAP1 enzyme, Leu-AMC fluorescence, 60 min; at 11 µM (top of the series).
In the case of `CN(C)Cc1c(O)ccc2cc(-c3nc4ccccc4n3C)c(=O)oc12`, the activity increase (activation) was -107% (inactive).

Consider `CSC1=NS(=O)(=O)c2c(C)nn(C)c2S1`, for which the activity increase (activation) was -42.5% (inactive).

Regarding `Cc1c(CC(=O)N2CCN(C(=O)C3COc4ccccc4O3)CC2)c(=O)oc2cc(O)c(Cl)cc12` (stereo not drawn), the activity increase (activation) was -33.4% (inactive).

`NC(=NCCc1c[nH]c2ccccc12)NS(=O)(=O)c1cc(F)ccc1F`: the activity increase (activation) is -59.5% (inactive).

Turning to `CN1[C@@H]2c3ccc(/C=C/c4ccccc4)c(=O)n3C[C@@H]2[C@@H](CO)[C@@H]1C(=O)NC1CCCC1`, the activity increase (activation) is -14.6% (inactive).

With `CCCc1cc(=O)oc2c(CN(CC)CC)c(O)c(Cl)cc12`, the activity increase (activation) was -58.6% (inactive).

As for `C[C@@H]1CN([C@@H](C)CO)C(=O)c2cccc(NC(=O)Nc3ccc(C(F)(F)F)cc3)c2O[C@@H]1CN(C)C`, the activity increase (activation) was 30.6% (inactive).

As to `O=c1ccc2cc(O[C@@H]3O[C@H](CO)[C@@H](O)[C@H](O)[C@H]3O)c(O)cc2o1`, the activity increase (activation) is -98.9% (inactive).

For the compound `Cc1c(C)c2ccc(O)c(CN3CCN(C)CC3)c2oc1=O`, the activity increase (activation) was -52.8% (inactive).

In the case of `CCN1CCN(Cc2c(O)ccc3c(C)cc(=O)oc23)CC1`, the activity increase (activation) was -54.6% (inactive).

For the compound `COc1cc2ccc(=O)oc2cc1O`, the activity increase (activation) was -97.7% (inactive).

As to `CCOC(=O)C[n+]1ccc2c([nH]c3ccccc32)c1C`, the activity increase (activation) is -38.3% (inactive).

`Cc1cc(N(C)Cc2ccccc2)nc2cc(O)ccc12`: the activity increase (activation) was -54% (inactive).

For the compound `COc1ccc(-c2cc3ccc(O)cc3oc2=O)cc1OC`, the activity increase (activation) was -92.7% (inactive).

Consider `Cc1c(O)ccc2cc(S(=O)(=O)c3ccccc3)c(=O)oc12`, for which the activity increase (activation) was -94% (inactive).

On to `CCc1cc(=O)oc2c(CN3CCN(C)CC3)c(O)ccc12`, for which the activity increase (activation) is -65.3% (inactive).

In the case of `O=c1oc2cc(O)ccc2cc1S(=O)(=O)c1ccccc1`, the activity increase (activation) is 349% (inactive).

For the compound `Cc1cc(=O)oc2c(CN3CCCCC3)c(O)ccc12`, the activity increase (activation) is -81.1% (inactive).

On to `N#Cc1c(N2CCNCC2)nc(-c2ccco2)c2c1CCCC2`, for which the activity increase (activation) was -51.7% (inactive).

As to `CC1CCCC(C)N1CCCNC(=O)c1cc2c(s1)-c1ccccc1OC2` (stereo not drawn), the activity increase (activation) was -45.6% (inactive).

Regarding `CCN(CC)Cc1c(O)ccc2cc(-c3nc4ccccc4n3C)c(=O)oc12`, the activity increase (activation) is -105% (inactive).

On to `COc1ccc(-c2cc3ccc(O)cc3oc2=O)cc1`, for which the activity increase (activation) is -75.7% (inactive).

Turning to `O=C(O)c1ccccc1NS(=O)(=O)c1cccc(-n2sc3ccccc3c2=O)c1`, the activity increase (activation) was -98.6% (inactive).

In the case of `C/C(=N\NC(=O)CC#N)c1cc2ccc(O)cc2oc1=O`, the activity increase (activation) is -67.1% (inactive).
